Results taken from publication PMC8429728, “TNK1 is a ubiquitin-binding and 14-3-3-regulated kinase that can be targeted to block tumor growth” (Nature Communications, 2021).
Read-outs that look alike come from different tables or passages of the source.

How the values were obtained:
Assay in all cases: biochemical
Design in all cases: Reaction Biology 371-kinase panel at Km ATP, per cent enzyme activity relative to DMSO, single dose in duplicate
c-MER = biological target: T1, c-MER (Homo sapiens, UniProt Q12866); conditions: duplicate measurements, Km ATP
T1 construct: gene MERTK
Procedure, shortened: (§1)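 Compound screened at 300 nM in vitro across a 371-kinase panel. Enzyme activity expressed as % of DMSO controls. IC50 values came from sigmoidal variable-slope dose-response fits with the bottom fixed at 0.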

WEE1 = WEE1 (Homo sapiens, UniProt P30291); conditions: duplicate measurements, Km ATP
Procedure, shortened: as §1

CDK9/CYCLIN K = CDK9/CYCLIN K (Homo sapiens, UniProt P50750); conditions: duplicate measurements, Km ATP
Procedure, shortened: as §1

KDR/VEGFR2 = KDR/VEGFR2 (Homo sapiens, UniProt P35968); conditions: duplicate measurements, Km ATP
Sequence of KDR/VEGFR2 (P35968 whole entry): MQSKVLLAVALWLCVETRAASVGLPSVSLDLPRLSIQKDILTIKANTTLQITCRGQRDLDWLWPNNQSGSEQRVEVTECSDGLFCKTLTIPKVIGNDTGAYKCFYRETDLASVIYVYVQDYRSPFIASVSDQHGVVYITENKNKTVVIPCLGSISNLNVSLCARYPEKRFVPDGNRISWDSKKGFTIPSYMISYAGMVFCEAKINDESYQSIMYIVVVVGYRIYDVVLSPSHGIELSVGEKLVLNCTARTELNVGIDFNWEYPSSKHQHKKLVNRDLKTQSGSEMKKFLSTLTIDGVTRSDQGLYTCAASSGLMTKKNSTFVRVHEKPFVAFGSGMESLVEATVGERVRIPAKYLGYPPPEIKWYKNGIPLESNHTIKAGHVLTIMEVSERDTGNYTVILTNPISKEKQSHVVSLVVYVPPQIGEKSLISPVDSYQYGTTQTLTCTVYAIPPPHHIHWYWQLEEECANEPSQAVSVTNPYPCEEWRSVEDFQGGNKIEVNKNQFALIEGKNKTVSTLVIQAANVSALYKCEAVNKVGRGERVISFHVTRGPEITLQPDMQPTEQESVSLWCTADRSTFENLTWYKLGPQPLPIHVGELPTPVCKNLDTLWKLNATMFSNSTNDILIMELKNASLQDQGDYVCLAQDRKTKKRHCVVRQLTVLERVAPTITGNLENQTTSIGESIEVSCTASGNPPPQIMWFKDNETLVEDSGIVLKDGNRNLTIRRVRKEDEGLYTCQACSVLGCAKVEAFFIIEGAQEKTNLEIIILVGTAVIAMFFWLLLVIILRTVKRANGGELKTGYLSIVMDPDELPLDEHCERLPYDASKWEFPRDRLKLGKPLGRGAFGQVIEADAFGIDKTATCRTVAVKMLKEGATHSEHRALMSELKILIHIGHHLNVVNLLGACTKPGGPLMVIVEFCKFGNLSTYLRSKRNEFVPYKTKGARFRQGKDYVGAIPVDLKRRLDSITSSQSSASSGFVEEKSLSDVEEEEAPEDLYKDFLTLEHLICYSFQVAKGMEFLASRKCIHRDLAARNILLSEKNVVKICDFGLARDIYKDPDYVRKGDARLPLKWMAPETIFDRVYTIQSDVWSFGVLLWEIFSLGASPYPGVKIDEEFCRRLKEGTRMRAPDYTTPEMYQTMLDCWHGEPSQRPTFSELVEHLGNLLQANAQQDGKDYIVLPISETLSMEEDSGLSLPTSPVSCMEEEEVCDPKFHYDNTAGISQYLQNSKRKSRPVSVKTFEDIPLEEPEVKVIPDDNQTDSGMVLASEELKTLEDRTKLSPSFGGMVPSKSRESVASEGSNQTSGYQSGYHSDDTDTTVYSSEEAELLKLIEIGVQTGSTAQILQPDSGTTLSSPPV
Procedure, shortened: as §1

DRAK1/STK17A = DRAK1/STK17A (Homo sapiens, UniProt Q9UEE5); conditions: duplicate measurements, Km ATP
Sequence of DRAK1/STK17A (Q9UEE5 whole entry): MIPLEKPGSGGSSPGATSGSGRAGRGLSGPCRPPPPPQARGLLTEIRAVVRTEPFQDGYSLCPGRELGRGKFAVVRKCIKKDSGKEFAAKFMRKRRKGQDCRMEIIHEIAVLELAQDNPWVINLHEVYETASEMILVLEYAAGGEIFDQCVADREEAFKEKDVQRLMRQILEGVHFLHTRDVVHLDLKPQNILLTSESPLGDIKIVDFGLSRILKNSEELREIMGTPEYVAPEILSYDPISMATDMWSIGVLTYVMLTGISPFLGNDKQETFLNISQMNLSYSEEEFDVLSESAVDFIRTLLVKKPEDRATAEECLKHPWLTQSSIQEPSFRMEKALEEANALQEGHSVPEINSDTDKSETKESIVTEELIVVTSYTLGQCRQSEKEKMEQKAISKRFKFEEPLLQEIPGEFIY
Procedure, shortened: as §1

AXL = AXL (Homo sapiens, UniProt P30530); conditions: duplicate measurements, Km ATP
Procedure, shortened: as §1

PYK2 = biological target: T2, PYK2 (Homo sapiens, UniProt Q14289); conditions: duplicate measurements, Km ATP
T2 construct: gene PTK2B
Procedure, shortened: as §1

CDK9/cyclin T1 = CDK9/cyclin T1 (Homo sapiens, UniProt P50750); conditions: duplicate measurements, Km ATP
Procedure, shortened: as §1

TAOK3/JIK = TAOK3/JIK (Homo sapiens, UniProt Q9H2K8); conditions: duplicate measurements, Km ATP
Procedure, shortened: as §1

CDK16/cyclin Y (PCTAIRE) = CDK16/cyclin Y (PCTAIRE) (Homo sapiens, UniProt Q00536); conditions: duplicate measurements, Km ATP
Procedure, shortened: as §1

JNK2 = biological target: T3, JNK2 (Homo sapiens, UniProt P45984); conditions: duplicate measurements, Km ATP
T3 construct: gene MAPK9
Procedure, shortened: as §1

MSSK1/STK23 = biological target: T4, MSSK1/STK23 (Homo sapiens, UniProt Q9UPE1); conditions: duplicate measurements, Km ATP
T4 construct: gene SRPK3
Procedure, shortened: as §1

TNIK = TNIK (Homo sapiens, UniProt Q9UKE5); conditions: duplicate measurements, Km ATP
Procedure, shortened: as §1

MLK4 = biological target: T5, MLK4 (Homo sapiens, UniProt Q5TCX8); conditions: duplicate measurements, Km ATP; read-out: % Enzyme Activity (relative to DMSO controls) / TP-0005801 (0.3µM) / Data 1
T5 construct: gene MAP3K21
Procedure, shortened: as §1

CHK1 = biological target: T6, CHK1 (Homo sapiens, UniProt O14757); conditions: duplicate measurements, Km ATP
T6 construct: gene CHEK1
Procedure, shortened: as §1

CDK19/cyclin C = CDK19/cyclin C (Homo sapiens, UniProt Q9BWU1); conditions: duplicate measurements, Km ATP
Procedure, shortened: as §1

GRK3 = GRK3 (Homo sapiens, UniProt P35626); conditions: duplicate measurements, Km ATP
Sequence of GRK3 (P35626 whole entry): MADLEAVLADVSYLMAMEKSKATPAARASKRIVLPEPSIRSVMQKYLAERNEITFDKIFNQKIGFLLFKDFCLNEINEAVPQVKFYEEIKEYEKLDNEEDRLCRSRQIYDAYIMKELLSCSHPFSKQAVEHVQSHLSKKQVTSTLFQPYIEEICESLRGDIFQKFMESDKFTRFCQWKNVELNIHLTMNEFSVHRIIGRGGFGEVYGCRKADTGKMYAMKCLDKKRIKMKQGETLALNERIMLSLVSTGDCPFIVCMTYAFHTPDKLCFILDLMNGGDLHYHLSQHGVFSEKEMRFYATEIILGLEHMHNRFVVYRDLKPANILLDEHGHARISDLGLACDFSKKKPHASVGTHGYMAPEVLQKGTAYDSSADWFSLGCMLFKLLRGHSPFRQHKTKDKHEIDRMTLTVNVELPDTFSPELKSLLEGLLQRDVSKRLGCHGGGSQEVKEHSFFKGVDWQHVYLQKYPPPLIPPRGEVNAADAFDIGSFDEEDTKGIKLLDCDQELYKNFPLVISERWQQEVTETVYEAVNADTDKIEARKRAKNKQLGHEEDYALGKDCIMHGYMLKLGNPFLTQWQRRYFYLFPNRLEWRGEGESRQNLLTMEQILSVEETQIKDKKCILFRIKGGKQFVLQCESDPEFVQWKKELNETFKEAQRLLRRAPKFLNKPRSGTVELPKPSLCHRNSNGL
Procedure, shortened: as §1

EPHA6 = EPHA6 (Homo sapiens, UniProt Q9UF33); conditions: duplicate measurements, Km ATP
Sequence of EPHA6 (Q9UF33 whole entry): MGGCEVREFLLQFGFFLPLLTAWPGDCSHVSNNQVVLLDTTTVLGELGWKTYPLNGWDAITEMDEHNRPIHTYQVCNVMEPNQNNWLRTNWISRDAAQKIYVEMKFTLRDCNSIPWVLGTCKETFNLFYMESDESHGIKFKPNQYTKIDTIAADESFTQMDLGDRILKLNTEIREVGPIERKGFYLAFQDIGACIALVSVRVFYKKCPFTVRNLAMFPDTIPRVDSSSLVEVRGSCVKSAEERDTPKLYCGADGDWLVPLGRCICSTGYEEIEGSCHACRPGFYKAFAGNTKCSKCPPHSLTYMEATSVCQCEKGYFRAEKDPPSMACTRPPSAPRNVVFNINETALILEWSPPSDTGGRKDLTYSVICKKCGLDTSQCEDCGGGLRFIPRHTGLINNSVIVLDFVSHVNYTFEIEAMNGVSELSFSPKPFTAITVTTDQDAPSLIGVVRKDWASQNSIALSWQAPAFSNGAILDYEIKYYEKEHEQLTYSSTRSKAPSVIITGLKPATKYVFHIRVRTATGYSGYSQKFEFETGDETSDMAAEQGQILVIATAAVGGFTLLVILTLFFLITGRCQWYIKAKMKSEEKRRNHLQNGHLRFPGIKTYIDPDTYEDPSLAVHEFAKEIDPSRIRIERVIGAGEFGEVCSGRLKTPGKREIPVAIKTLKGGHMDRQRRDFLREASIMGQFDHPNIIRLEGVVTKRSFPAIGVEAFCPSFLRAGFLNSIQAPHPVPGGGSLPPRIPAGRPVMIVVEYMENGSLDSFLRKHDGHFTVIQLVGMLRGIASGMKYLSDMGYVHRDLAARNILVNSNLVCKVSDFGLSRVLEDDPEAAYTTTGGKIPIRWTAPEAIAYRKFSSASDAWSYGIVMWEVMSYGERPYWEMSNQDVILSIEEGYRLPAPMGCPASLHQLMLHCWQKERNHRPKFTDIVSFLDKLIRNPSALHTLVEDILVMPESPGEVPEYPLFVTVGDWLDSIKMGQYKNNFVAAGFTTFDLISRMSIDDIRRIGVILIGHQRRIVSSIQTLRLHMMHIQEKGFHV
Procedure, shortened: as §1

SRPK2 = SRPK2 (Homo sapiens, UniProt P78362); conditions: duplicate measurements, Km ATP
Sequence of SRPK2 (P78362 whole entry): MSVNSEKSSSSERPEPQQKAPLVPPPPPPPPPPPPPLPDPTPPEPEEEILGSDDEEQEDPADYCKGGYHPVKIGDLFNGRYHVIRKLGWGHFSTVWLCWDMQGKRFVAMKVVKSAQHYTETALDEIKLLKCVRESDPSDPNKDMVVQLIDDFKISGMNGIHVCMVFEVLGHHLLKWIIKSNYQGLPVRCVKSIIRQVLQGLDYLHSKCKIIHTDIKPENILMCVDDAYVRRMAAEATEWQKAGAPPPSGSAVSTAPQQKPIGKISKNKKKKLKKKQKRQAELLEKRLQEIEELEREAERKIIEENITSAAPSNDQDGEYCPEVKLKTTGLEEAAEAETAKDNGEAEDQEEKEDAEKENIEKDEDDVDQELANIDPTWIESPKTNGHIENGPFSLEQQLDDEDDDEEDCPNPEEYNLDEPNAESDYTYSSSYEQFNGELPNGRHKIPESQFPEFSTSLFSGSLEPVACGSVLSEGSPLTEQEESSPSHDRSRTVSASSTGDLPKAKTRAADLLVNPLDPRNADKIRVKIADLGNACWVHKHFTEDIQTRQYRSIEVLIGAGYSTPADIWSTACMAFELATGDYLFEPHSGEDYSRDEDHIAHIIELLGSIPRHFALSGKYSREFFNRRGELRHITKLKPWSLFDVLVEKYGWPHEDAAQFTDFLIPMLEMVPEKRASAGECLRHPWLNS
Procedure, shortened: as §1

SRPK1 = SRPK1 (Homo sapiens, UniProt Q96SB4); conditions: duplicate measurements, Km ATP
Sequence of SRPK1 (Q96SB4 whole entry): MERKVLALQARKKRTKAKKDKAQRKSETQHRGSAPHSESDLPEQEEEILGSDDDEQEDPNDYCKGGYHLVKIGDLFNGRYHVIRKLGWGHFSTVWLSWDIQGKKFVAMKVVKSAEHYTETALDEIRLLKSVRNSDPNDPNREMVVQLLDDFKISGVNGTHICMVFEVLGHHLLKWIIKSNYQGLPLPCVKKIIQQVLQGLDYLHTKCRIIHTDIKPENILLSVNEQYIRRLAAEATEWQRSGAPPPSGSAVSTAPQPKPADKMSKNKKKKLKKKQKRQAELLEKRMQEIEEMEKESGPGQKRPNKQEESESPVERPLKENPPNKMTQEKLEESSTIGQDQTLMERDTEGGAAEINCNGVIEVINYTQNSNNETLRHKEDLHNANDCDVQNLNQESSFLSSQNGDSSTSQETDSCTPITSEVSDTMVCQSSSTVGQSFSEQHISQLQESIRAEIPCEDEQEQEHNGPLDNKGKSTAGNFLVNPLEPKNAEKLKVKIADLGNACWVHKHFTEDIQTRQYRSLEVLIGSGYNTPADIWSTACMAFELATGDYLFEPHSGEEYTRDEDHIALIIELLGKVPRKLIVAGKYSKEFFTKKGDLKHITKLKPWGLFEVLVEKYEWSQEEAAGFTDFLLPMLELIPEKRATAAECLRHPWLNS
Procedure, shortened: as §1

[1] = read-out: % Enzyme Activity (relative to DMSO controls) / TP-0005801 (0.3µM) / Data 1
[2] = read-out: % Enzyme Activity (relative to DMSO controls) / TP-0005801 (0.3µM) / Data 2

Structure (SMILES): COc1cc(N2CCN(C)CC2)c(C)cc1Nc1ncc(Br)c(Nc2cccnc2N(C)C)n1 [TP-5801]
- remaining activity at 0.3 µM (c-MER; [1]): 106%
- remaining activity at 0.3 µM (c-MER; [2]): 104%
- remaining activity at 0.3 µM (WEE1; [1]): 94.2%
- remaining activity at 0.3 µM (WEE1; [2]): 93.6%
- remaining activity at 0.3 µM (CDK9/CYCLIN K; [1]): 108%
- remaining activity at 0.3 µM (CDK9/CYCLIN K; [2]): 105%
- remaining activity at 0.3 µM (KDR/VEGFR2; [1]): 93.5%
- remaining activity at 0.3 µM (KDR/VEGFR2; [2]): 93.2%
- remaining activity at 0.3 µM (DRAK1/STK17A; [1]): 92%
- remaining activity at 0.3 µM (DRAK1/STK17A; [2]): 88.6%
- remaining activity at 0.3 µM (AXL; [1]): 89.2%
- remaining activity at 0.3 µM (AXL; [2]): 86.3%
- remaining activity at 0.3 µM (PYK2; [1]): 23.7%
- remaining activity at 0.3 µM (PYK2; [2]): 23.5%
- remaining activity at 0.3 µM (CDK9/cyclin T1; [1]): 128%
- remaining activity at 0.3 µM (CDK9/cyclin T1; [2]): 115%
- remaining activity at 0.3 µM (TAOK3/JIK; [1]): 88.2%
- remaining activity at 0.3 µM (TAOK3/JIK; [2]): 86.8%
- remaining activity at 0.3 µM (CDK16/cyclin Y (PCTAIRE); [1]): 99.8%
- remaining activity at 0.3 µM (CDK16/cyclin Y (PCTAIRE); [2]): 97.2%
- remaining activity at 0.3 µM (JNK2; [1]): 97%
- remaining activity at 0.3 µM (JNK2; [2]): 96.3%
- remaining activity at 0.3 µM (MSSK1/STK23; [1]): 89.7%
- remaining activity at 0.3 µM (MSSK1/STK23; [2]): 88.8%
- remaining activity at 0.3 µM (TNIK; [1]): 49.6%
- remaining activity at 0.3 µM (TNIK; [2]): 48.7%
- remaining activity at 0.3 µM (MLK4): 106%
- remaining activity at 0.3 µM (CHK1; [1]): 104%
- remaining activity at 0.3 µM (CHK1; [2]): 101%
- remaining activity at 0.3 µM (CDK19/cyclin C; [1]): 54.8%
- remaining activity at 0.3 µM (CDK19/cyclin C; [2]): 54.1%
- remaining activity at 0.3 µM (GRK3; [1]): 93.9%
- remaining activity at 0.3 µM (GRK3; [2]): 93%
- remaining activity at 0.3 µM (EPHA6; [1]): 103%
- remaining activity at 0.3 µM (EPHA6; [2]): 98.6%
- remaining activity at 0.3 µM (SRPK2; [1]): 114%
- remaining activity at 0.3 µM (SRPK2; [2]): 110%
- remaining activity at 0.3 µM (SRPK1; [1]): 96.5%
- remaining activity at 0.3 µM (SRPK1; [2]): 93.9%
